Source: article PMC8551122, “Characterization and Modeling of Thermostable GH50 Agarases from Microbulbifer elongatus PORT2” (Marine Biotechnology (New York, N.y.), 2021)

Target: T1, AgaB50 (Microbulbifer elongatus, UniProt A0A516UX44)
T1 construct: full-length precursor 769 aa; 26 N-terminal residues (SPII lipoprotein signal peptide) deleted; N-terminal His6 tag; E. coli BL21 (DE3), pFO4; about 82 kDa
T1 sequence (A0A516UX44 1-743): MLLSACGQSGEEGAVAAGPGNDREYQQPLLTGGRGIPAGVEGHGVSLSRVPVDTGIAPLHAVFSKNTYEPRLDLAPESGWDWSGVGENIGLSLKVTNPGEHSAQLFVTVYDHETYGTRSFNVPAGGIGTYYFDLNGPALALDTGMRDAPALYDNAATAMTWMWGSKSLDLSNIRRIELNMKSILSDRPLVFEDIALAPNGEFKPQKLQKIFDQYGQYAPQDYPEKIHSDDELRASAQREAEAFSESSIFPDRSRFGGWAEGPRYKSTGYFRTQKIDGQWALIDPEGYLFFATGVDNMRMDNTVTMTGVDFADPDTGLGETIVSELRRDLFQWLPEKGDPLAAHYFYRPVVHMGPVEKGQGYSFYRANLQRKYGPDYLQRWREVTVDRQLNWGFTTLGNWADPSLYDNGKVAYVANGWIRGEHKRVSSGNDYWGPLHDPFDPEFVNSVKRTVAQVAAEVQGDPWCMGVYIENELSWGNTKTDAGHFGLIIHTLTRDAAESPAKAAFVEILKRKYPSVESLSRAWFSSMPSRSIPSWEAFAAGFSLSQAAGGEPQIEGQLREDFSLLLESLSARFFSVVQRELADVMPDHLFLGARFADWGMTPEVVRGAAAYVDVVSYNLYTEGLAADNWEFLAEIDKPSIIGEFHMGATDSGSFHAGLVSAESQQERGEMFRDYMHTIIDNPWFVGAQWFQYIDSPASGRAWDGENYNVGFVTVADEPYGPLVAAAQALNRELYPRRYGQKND
Assay: HPLC-RID product analysis, end point
Assay type: biochemical
Conditions: […] in ultrapure water, […] °C, overnight

OC[C@H]1O[C@@H](O[C@H]2[C@H]3OC[C@@H]2O[C@@H](O[C@H]2[C@@H](O)[C@@H](CO)O[C@@H](O[C@H]4[C@H]5OC[C@@H]4O[C@@H](O[C@H]4[C@@H](O)[C@@H](CO)O[C@@H](O[C@H]6[C@H]7OC[C@@H]6O[C@@H](O[C@H]6[C@@H](O)[C@@H](CO)OC(O)[C@@H]6O)[C@H]7O)[C@@H]4O)[C@H]5O)[C@@H]2O)[C@H]3O)[C@H](O)[C@@H](O[C@@H]2O[C@H]3CO[C@@H]([C@@H]2O)[C@@H]3O)[C@H]1O (stereo partly shown) [NA8, neoagarooctaose]
HPLC-RID product analysis, end point: AgaB50 was able to convert larger NAOS such as NA8, NA6, and NA4
